Laboratory results as given in patent US7396817B2, “Biologically active peptides comprising Isoleucyl-valyl-threonyl-asparaginyl-threonyl-threonine (IVTNTT)” (CMS Peptides Patent Holding Company Limited, priority 2003, dated 2008).
Marks after values point to notes of the source that are not given here. No end group written: not given here.

Legend:
[1] = Cytotoxicity (cell survival, TC50) in the HBV-DNA experiment; assay type: cell-based; details: human, HepG2 2.2.15 cells, day 8, concentration at which cell survival is 50% of control
Protocol: (§1) Cell suspensions were prepared and incubated as described in Method 1 above. […] The culture media, with added test substance, were exchanged on days 3 and 6. On the 8th day, the supernatants of the cell cultures were harvested for the determination of HBV-DNA concentrations by fluorescent quantitative PCR^[3,4], using the method described by the kit supplier. The cultured cells were taken for analysis of the cytotoxicity of each test substance. The inhibitory percentage of the drug was calculated in the following manner: Inhibitory percentage (%)=(blank control−sample)/blank control×100 Cell survival percentage (%)=sample (A595−A650)/blank control (A595−A650)×100
(§2) TC50 was defined as the test substance concentration at which the percentage of surviving cells in the test group is 50% of that of the control group. IC50 was the test substance concentration at which the percentage of reduction of HBV-DNA concentration is 50% compared to control. These were determined by plotting the corresponding percentage against the test substance concentrations. The selection index (SI) was calculated as TC50/IC50. The bigger the value of SI, the higher the inhibition activity of test substance is and the less cytotoxic it is.

hepG 2 2.2.15 cell line = assay: Cytotoxicity of CMS017 on 2.2.15 cell cultures, MTT staining (maximum non-toxic concentration); assay type: cell-based; details: 2.2.15 cells, MTT staining on day 8
Protocol: (§3) a. Inhibitory effect of CMS017 on HBsAg and HBeAg at maximum non-toxic concentration in vitro 2.2.15 cells, growing at logarithmic phase, were harvested and re-suspended in MEM culture medium (containing 10% calf serum, […], and 100 U/ml streptomycin) as a 2×10^6/ml cell suspension. The suspension was inoculated into a 24-well cell culture plate with 1.5 ml per well, and incubated at 37° C., 5% CO2 for 48 hours. The test substance CMS017 was diluted and added to the 2.2.15 cultures to final concentrations of 0, 50, 100, 200, 400, 800 μg/ml, with 3 parallel samples per concentration. The cells were then incubated at 37° C., 5% CO2. The supernatant was refreshed on days 3 and 6. The cytotoxicity of CMS017 on 2.2.15 cell cultures was then observed with MTT staining on day 8, and the maximum non-toxic concentration of CMS017 was determined.

HBeAg = details: at 400 μg/ml, day 8, 2.2.15 cell supernatant
Protocol: as §3
(§4) The preparation and incubation of cell suspensions were repeated as above with the determined maximum non-toxic concentration of CMS017, and with parallel negative and positive controls (lamivudine with the same concentration as CMS017 was used as the positive control). On the 8th day, the titers of HBsAg and HBeAg in the cell culture supernatants were determined by ELISA^[1,2], using conditions described by the kit supplier. The inhibition percentage of each test substance was calculated as shown below. Inhibitory percentage (%)=(blank control−sample)/blank control×100 Cell survival percentage (%)=sample (A595−A650)/blank control (A595−A650)×100

HBsAg = details: at 400 μg/ml, day 8, 2.2.15 cell supernatant
Protocol: as §3, §4

HBV-DNA = assay: Inhibition of supernatant HBV-DNA in 2.2.15 cells (fluorescent quantitative PCR); details: for IC50 (HBV-DNA): 2.2.15 cell supernatant; for IC50 (HBV-DNA) / inhibitory percentage for supernatant HBV-DNA: day 8; for inhibitory percentage for supernatant HBV-DNA: at the concentration of 160 μg/ml
Protocol: as §1, §2

[2] = tested on: T lymphocyte transformation; assay: ConA-induced T lymphocyte transformation of spleen cells from treated mice (MTT); assay type: in vivo, BALB/c mice; details: for stimulation index (X ± SD): BALB/c mice, spleen cells + ConA
Protocol: The day after the last test substance administration, the mice were sacrificed by cervical dislocation. The spleen was isolated aseptically and manually dispersed in cold D-Hank's solution using an injection needle. The dispersed cell suspension was further sieved through a 100 gauge 150 μm diameter stainless steel sieve. After centrifugation at 200 g for 10 minutes, the supernatant was discarded. […] The suspended cells were collected by centrifugation at 150 g for 10 minutes. […] The cells were then pelleted by centrifugation at 150 g for 10 minutes. […] The incubation was continued for 4 hours.

Compound | CC50 at 192 h [1] | maximum non-toxic concentration (hepG 2 2.2.15 cell line) | Inhibition ratio of HBeAg (HBeAg) | Inhibition ratio of HBsAg (HBsAg) | IC50 (HBV-DNA) (HBV-DNA) | SI (selection index, TC50/IC50) (HBV-DNA) | inhibitory percentage for supernatant HBV-DNA (HBV-DNA) | stimulation index (X ± SD) ([2]; 50 μg/kg/day i.p. for 28 days) | effect on T lymphocyte transformation (in words) ([2]; 50 μg/kg/day, compared with the saline control group (P<0.05)) | stimulation index (X ± SD) ([2]; 200 μg/kg/day i.p. for 28 days)
IVTNTT [CMS017, L-Isoleucyl-L-valyl-L-threonyl-L-asparaginyl-L-threonyl-L-threonine] | 1330 µg/mL | 400 µg/mL | 62.2%* | 68.6%* | 2.3 µg/mL | 577.7 | 90.8% | 2.82 ± 0.41 | enhance T lymphocyte transformation | 2.65 ± 0.51
Nc1ccn([C@@H]2CS[C@H](CO)O2)c(=O)n1 [Lamivudine, lamivudine, reference compound] |  |  | 35.4%* | 29.6%* |  |  |  |  |  | 
vidarabine monophosphate [Ara-AMP, reference compound] |  |  |  |  | 11.4 µg/mL | 5.6 | 89.1%* |  |  | 
